The values below come from PubChem BioAssay (NCI).

Test in all cases: inhibition of tumour cell growth, NCI panel, 48 h
Assay [1] has as its system HOP-62 NSCLC.
Assay [2] relates to M14 melanoma.
Assay [3] deals with CAKI-1 renal.
For assay [4], the system named is RPMI-8226 leukemia.
Assay [5] has as its system NCI-H460 lung.
The subject of assay [6] is OVCAR-5 ovarian.
Assay [7] concerns SF-295 CNS.
Assay [8] concerns KM12 colon.
Assay [9] deals with U251 CNS.
Assay [10] concerns SNB-75 CNS.

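These data come from cells grown in 96-well plates and exposed to compound for 48 hours at five concentrations. GI50: concentration for 50% inhibition of growth. At the TGI there is no net growth.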 Where a SMILES comes first, the peptide text is derived from it. [ ]: non-standard residue; d: D form. The star is where a group is joined. NMeF = CN[CH](Cc1ccccc1)C(=O)O; NMeV = CN[CH](C(=O)O)C(C)C; Boc = CC(C)(C)OC(=O)* Where only a bound is given, the exact number is not on record here.

Regarding `O=C(O)C1OC(n2cc(F)c(=O)[nH]c2=O)CC1O` (stereo not drawn), the TGI in assay [1] is greater than 89.2 µM; in assay [2], greater than 100 µM; in assay [3], greater than 100 µM; in assay [4] it was greater than 100 µM; in assay [5] it was greater than 100 µM; in assay [6], greater than 100 µM. Besides, the TGI in [7], in assay [8], in [9] and in [10] was greater than 100 µM throughout.
As to `COC(=O)/C(=N\Nc1nnc(C)n1N)C(C#N)c1ccc(Cl)cc1` (stereo not drawn), the TGI in assay [1], in [2], in assay [3], in [4], in assay [5] and in assay [6] was greater than 100 µM throughout. Also, the TGI in assay [7], in assay [8], in assay [9] and in assay [10] was greater than 100 µM each time.
Turning to `CCOC(=O)c1c(C)n(Cc2ccc(Cl)cc2Cl)c2c1c(CN(C)C)c(O)c1[nH]cnc12`, the GI50 is 12.8 µM in assay [1]; 24.2 µM in assay [2]; 18.4 µM in assay [3]; 7.95 µM in assay [4]; 15.3 µM in assay [5]; 28.1 µM in assay [7]. Moreover, the GI50 was 17.8 µM in assay [8], 14.8 µM in [9] and 3.55 µM in assay [10]. In addition, the TGI in assay [1] turned out to be 29.5 µM; in [2], 43.9 µM; in assay [3] it was 37.9 µM; in assay [4], 22.1 µM; in [5] it was 28.7 µM; in [7], 65 µM. Also, the values for the TGI in assay [8], in assay [9] and in [10] were 35.8 µM, 27.9 µM and 17 µM, respectively.
`CC(C)C(NC(=O)OC(C)(C)C)C(=O)N(C)C(Cc1ccccc1)C(=O)N(C)C(C(=O)O)C(C)C` (stereo not drawn) (Boc-Val-[NMeF]-[NMeV]-OH; configuration not given here): the TGI in [1], in [2], in assay [4], in assay [5], in assay [7] and in assay [8] was greater than 100 µM in each case. In assay [9], the TGI is greater than 100 µM.
In the case of `CCOc1ccccc1N=Nc1ccc2oc(=O)c(C(=O)Nc3cccc(C)c3)cc2c1`, the TGI in assay [1] was greater than 100 µM; in assay [2], 59.5 µM; in assay [3], greater than 100 µM; in assay [4], greater than 100 µM; in [6] it was greater than 100 µM; in assay [7], greater than 100 µM. Moreover, the TGI in assay [8] was greater than 100 µM; in assay [9], 81.2 µM; in [10], greater than 100 µM.
On to `COc1cc(C(C)O)c[n+](CCc2c[nH]c3ccccc23)c1` (stereo not drawn), for which the TGI in assay [1], in [2], in assay [3], in assay [4], in [5] and in assay [7] was greater than 100 µM throughout. Further, the TGI in [8], in assay [9] and in assay [10] was greater than 100 µM throughout.
Consider `CC(=O)CSCc1ccccn1`, for which the TGI was greater than 100 µM in assay [1]; greater than 100 µM in assay [2]; 36.8 µM in assay [4]; greater than 100 µM in assay [5]; greater than 100 µM in assay [6]; greater than 100 µM in assay [7]. The TGI is greater than 100 µM in assay [8], greater than 100 µM in [9] and 71.9 µM in [10].
As for `Cc1ccc(C(=O)CN(/C=C/C(=O)C(F)(F)F)c2ccc(S(N)(=O)=O)cc2)cc1`, the GI50 in [1] is greater than 100 µM; in assay [2], greater than 100 µM; in assay [3] it was 93 µM; in assay [4] it was 29.7 µM; in assay [5] it was greater than 100 µM; in [6] it was greater than 100 µM. The GI50 in assay [7] is 43.8 µM; in assay [8] it was 31.4 µM; in assay [9], 48.4 µM. Moreover, the TGI in assay [1], in assay [2], in assay [3], in assay [4], in assay [5] and in assay [6] was greater than 100 µM each time. Further, the TGI in assay [7], in [8] and in assay [9] was greater than 100 µM throughout.
Turning to `CC(C)(C)c1cc(Br)c(O)c(CN(Cc2cc(C(C)(C)C)cc(Br)c2O)C2CCCCC2)c1`, the TGI turned out to be 28.5 µM in assay [1]; 25.5 µM in assay [2]; 24.7 µM in assay [3]; 27.9 µM in assay [4]; 29.1 µM in assay [6]; 25.3 µM in assay [7]. In addition, the TGI in assay [8] came out at 29.4 µM; in assay [9], 26.8 µM; in assay [10], 20.9 µM.
Regarding `CC1CC[C@]2(C(=O)O)CCC3(C)C(=CC(=O)C4[C@@]5(C)CCC(=O)C(C)(C)C5CC[C@]43C)[C@@H]2[C@H]1C` (stereo partly drawn), the TGI is 46.3 µM in assay [1]; greater than 100 µM in [2]; greater than 100 µM in assay [3]; greater than 100 µM in [5]; greater than 100 µM in [7]; 56.1 µM in assay [8]. The TGI in [9] was 98.8 µM; in assay [10], greater than 100 µM.
In the case of `COC1=C(C)C(=O)c2c(c(COC(N)=O)c3n2CC2C3N2C)C1=O` (stereo not drawn), the TGI came out at 0.074 µM in assay [1]; 0.0641 µM in assay [2]; 0.059 µM in assay [3]; 0.117 µM in [4]; 0.324 µM in assay [6]; 0.0261 µM in [7]. Besides, the TGI in assay [8] is 0.143 µM; in [9], 0.0231 µM; in assay [10], less than 0.0446 µM.
Consider `NP(=O)(Oc1c2occc2cc2ccc(=O)oc12)N(CCCl)CCCl` (stereo not drawn), for which the TGI in assay [1], in assay [2], in assay [3], in assay [4], in [5] and in [6] was greater than 100 µM in each case. The TGI in assay [7], in assay [8] and in assay [9] was greater than 100 µM in each case.
Take `Cc1cccc(NC(=O)C(=O)C(C(=O)c2ccc3ccccc3c2)C2OC(=O)c3ccccc32)c1C` (stereo not drawn): the TGI in [1] is 24.7 µM; in assay [2] it was 33.4 µM; in [3], 39.3 µM; in [4], 43.2 µM; in [5], 87.8 µM; in [6] it was 54.7 µM. Besides, the TGI in assay [8] is 51.7 µM; in assay [9] it was 23.1 µM; in [10] it was 42.9 µM.
For `Cc1ccc(C2=C(c3ccccc3)C(Br)(c3ccc(C)cc3)C(c3ccccc3)=C2c2ccc(C)cc2)cc1`, the TGI in [1], in assay [2], in assay [3], in assay [4], in [5] and in assay [6] was greater than 100 µM in each case. For the same compound, the TGI in assay [7], in assay [8] and in assay [9] was greater than 100 µM each time.
On to `CCCN1CCC(=O)N(CCC(F)(F)C(F)(F)C(F)(F)C(F)(F)C(F)(F)C(F)(F)F)C1=S`, for which the TGI in assay [1], in [2], in assay [3], in assay [5], in assay [6] and in assay [7] was greater than 100 µM each time. For the same compound, the TGI in assay [8], in assay [9] and in assay [10] was greater than 100 µM throughout.
For the compound `CN1C(=O)c2cccc3cc([N+](=O)[O-])cc(c23)C1=O`, the TGI in [1], in assay [2], in [3], in assay [4], in assay [6] and in [7] was greater than 10 µM each time. Besides, the TGI in assay [8], in [9] and in assay [10] was greater than 10 µM in each case.
In the case of `C1=CC2SSSC2C1` (stereo not drawn), the TGI in [1], in assay [2], in [4], in [5], in assay [6] and in [7] was greater than 100 µM in each case. In addition, the TGI in assay [8], in assay [9] and in assay [10] was greater than 100 µM in each case.
Turning to `Cc1cc(C(=O)Nc2ncc(Cc3cccc(C(F)(F)F)c3)s2)c2ccccc2n1`, the GI50 in [1] was 1.46 µM; in assay [2], 0.185 µM; in [3] it was 2.13 µM; in assay [4], 2.41 µM; in assay [5], 1.33 µM; in [7] it was 1.63 µM. The GI50 in assay [8] is 0.498 µM; in [9], 2.92 µM. The TGI in [1], in assay [2], in assay [3], in assay [4], in assay [5] and in assay [7] was greater than 100 µM throughout. The TGI in assay [8] and in [9] was greater than 100 µM throughout.
As to `O=C1CCN2C(=O)CCN12`, the TGI in [1], in assay [2], in assay [3], in [4], in [5] and in [6] was greater than 100 µM throughout. Also, the TGI in assay [7], in assay [8] and in [9] was greater than 100 µM in each case.
Turning to `Cc1cccc(NC(=O)/C(=N\NC(C)(C)C)C2NC(=S)NC2=O)c1C` (stereo not drawn), the TGI in assay [1], in assay [2], in assay [3], in assay [4], in [5] and in assay [6] was greater than 100 µM throughout. The TGI in assay [7], in [8] and in assay [9] was greater than 100 µM each time.
With `CC(C)(C)c1ccc2c(c1)S(=O)(=O)Nc1ccccc1NS(=O)(=O)c1cc(C(C)(C)C)ccc1OCCOCCOCCO2`, the TGI in assay [1], in assay [2], in assay [3], in assay [5], in assay [6] and in [7] was greater than 100 µM throughout. Also, the TGI in assay [8], in assay [9] and in [10] was greater than 100 µM throughout.
As for `c1ccc(CNn2nnc3ccccc32)cc1`, the TGI in assay [1], in assay [2], in assay [3], in assay [4], in [5] and in assay [6] was greater than 100 µM each time. Besides, the TGI in assay [7], in assay [8] and in assay [10] was greater than 100 µM each time.
Take `COc1cc(/C=C/c2cc(/C=C/c3ccc(O)c(OC)c3)n(C(=O)Nc3ccc(F)c(Cl)c3)n2)ccc1O`: the GI50 in assay [1] is 0.409 µM; in [2], 0.114 µM; in assay [3] it was 0.35 µM; in assay [4] it was 0.365 µM; in [6], 1.82 µM; in assay [7], 0.544 µM. In addition, in assay [8], the GI50 was 0.31 µM. The TGI in assay [1] is 1.59 µM; in [2], 1.59 µM; in assay [3], 4.92 µM; in [4], 1.73 µM; in [6], 6.87 µM; in [7] it was 2.6 µM. The TGI in assay [8] amounted to 1.15 µM.
Turning to `Clc1nc(Cl)c(Cl)c(-c2ccccc2)n1`, the TGI in assay [1] was 18.1 µM; in assay [2] it was 3.72 µM; in assay [4] it was greater than 100 µM; in [5], greater than 100 µM; in assay [6], 42.1 µM; in assay [7] it was 17.1 µM. The TGI in assay [8] came out at 18 µM; in assay [9], 30.3 µM; in assay [10], 21.5 µM.
For `CCOc1ccccc1NC(=O)CC(C(=O)OC)C(=O)C(=O)OC` (stereo not drawn), the TGI in assay [1], in [2], in assay [3], in assay [4], in assay [5] and in assay [6] was greater than 100 µM throughout. Besides, the TGI in assay [7], in assay [8] and in [9] was greater than 100 µM throughout.
As for `CC(C)C(Nc1c2ccccc2nc2ccccc12)C(=O)O` (stereo not drawn), the TGI in [2], in [3], in assay [4], in assay [5], in assay [6] and in assay [7] was greater than 100 µM each time. Besides, the TGI in assay [8], in assay [9] and in [10] was greater than 100 µM each time.
